One block for each compound: values may come before it.
Columns and labels:
Assay type in all cases: in vivo
[1] = test system: Echinochloa crus-galli (ECHCG); test: A. Herbicidal pre-emergence efficacy, ECHCG; conditions: scored visually after about 3 weeks vs untreated controls
Procedure, shortened: (§1)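 Applied before emergence onto covering soil at rates of 1280 g/ha or less, using 600 L/ha spray water with 0.5% additive. Scoring: visual % efficacy after ~3 weeks, greenhouse.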

[2] = test system: Matricaria inodora (MATIN); test: A. Herbicidal pre-emergence efficacy, MATIN
Procedure, shortened: as §1

[3] = test system: Alopecurus myosuroides (ALOMY); test: B. Herbicidal post-emergence efficacy, ALOMY; conditions: 1280 g/ha, rated visually after about 3 weeks
Method: Seeds of mono- and dicotyledonous weed plants were placed in plastic pots in sandy loam soil (doubly sown with in each case one species of mono- or dicotyledonous weed plants per pot), covered with soil and cultivated in a greenhouse under controlled growth conditions. 2 to 3 weeks after sowing, the test plants were treated at the one-leaf stage. The compounds of the invention, formulated in the form of wettable powders (WP) or as emulsion concentrates (EC), were applied onto the green parts of the plants as aqueous suspension or emulsion with addition of 0.5% additive at a water application rate of 600 liters per hectare (converted). After the test plants had been kept in the greenhouse under optimum growth conditions for about 3 weeks, the activity of the preparations was rated visually in comparison to untreated controls.
For example, • 100% efficacy=plants have died, • 0% efficacy=like untreated control plants
Tables B1a to B12c below show the effects of selected inventive compounds of the general formula (I) according to table 1 on various harmful plants at an application rate corresponding to 1280 g/ha or less, which were obtained by the experimental procedure mentioned above.

[4] = test system: Matricaria inodora (MATIN); test: C. Herbicidal pre-emergence efficacy, MATIN; conditions: 320 g/ha, scored after about 3 weeks
Source text: (§2) Seeds of monocotyledonous and dicotyledonous weed plants and crop plants were placed in plastic or organic planting pots and covered with soil. The compounds of the invention, formulated in the form of wettable powders (WP) or as emulsion concentrates (EC), were then applied to the surface of the covering soil as aqueous suspension or emulsion with addition of 0.5% additive at a water application rate equivalent to 600 l/ha (converted). After the treatment, the pots were placed in a greenhouse and kept under good growth conditions for the test plants. After about 3 weeks, the efficacy of the preparations was scored visually in comparison with untreated controls as percentages. For example, • 100% efficacy=plants have died, • 0% efficacy=like untreated control plants.
(§3) Tables C1a to C14b below show the effects of selected compounds of the general formula (I) according to table 1 on various harmful plants at an application rate corresponding to 320 g/ha or less, which were obtained by the experimental procedure mentioned above.

[5] = test system: Pharbitis purpurea (PHBPU); test: C. Herbicidal pre-emergence efficacy, PHBPU; conditions: 320 g/ha, scored after about 3 weeks
Source text: as §2, §3

[6] = test system: Alopecurus myosuroides (ALOMY); test: E. Herbicidal post-emergence efficacy, ALOMY; conditions: application rate 320 g/ha
Method: (§4) Seeds of monocotyledonous and dicotyledonous weeds and crop plants were placed in sandy loam in plastic or organic planting pots, covered with soil and cultivated in a greenhouse under controlled growth conditions. 2 to 3 weeks after sowing, the test plants were treated at the one-leaf stage. The compounds of the invention, formulated in the form of wettable powders (WP) or as emulsion concentrates (EC), were then sprayed onto the green parts of the plants as aqueous suspension or emulsion with addition of 0.5% additive at a water application rate of 600 l/ha (converted). After the test plants had been kept in the greenhouse under optimum growth conditions for about 3 weeks, the activity of the preparations was rated visually in comparison to untreated controls.
(§5) For example, • 100% efficacy=plants have died, • 0% action=like untreated control plants.
(§6) Tables E1a to E12b below show the effects of selected compounds of the general formula (I) according to table 1 on various harmful plants at an application rate corresponding to 320 g/ha or less, which were obtained by the experimental procedure mentioned above.

[7] = test system: Digitaria sanguinalis (DIGSA); test: E. Herbicidal post-emergence efficacy, DIGSA
Method: as §4, §5, §6

Zea mays (ZEAMX) = test: D. Pre-emergence effect on useful plants, ZEAMX; conditions: useful plant
Procedure, shortened: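 Seeds sown in pots and covered with soil; WP or EC formulations sprayed on the soil surface as aqueous suspension/emulsion with 0.5% additive at 600 l/ha water. Plants grown in greenhouse; crop damage scored visually after about 3 weeks as % versus untreated controls (100% = dead, 0% = like control).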

[8] = 320 g/ha, scored visually after about 3 weeks vs untreated controls
[9] = pre-emergence, dosage 1280 g/ha

SMILES: CCCS(=O)(=O)Oc1ccccc1Oc1ncc(Cl)cn1 [Example I-3]
Pre-emergence efficacy against ECHCG ([1]; 320 g/ha): 100%
Pre-emergence efficacy against ECHCG ([1]; 1280 g/ha): 100%
Pre-emergence efficacy against MATIN [2, 8]: 100%
Pre-emergence efficacy against MATIN [2, 9]: 100%
Post-emergence efficacy against ALOMY in % [3]: 90%
Pre-emergence efficacy against MATIN [4]: 90%
Pre-emergence efficacy against PHBPU [5]: 80%
Post-emergence efficacy against ALOMY in % [6]: 80%

SMILES: CCCCS(=O)(=O)Oc1ccccc1Oc1ncc(Cl)cn1 [Example I-6]
Pre-emergence efficacy against ECHCG ([1]; 80 g/ha): 100%
Pre-emergence efficacy against ECHCG ([1]; 320 g/ha): 100%
Pre-emergence efficacy against ECHCG ([1]; 1280 g/ha): 100%
Pre-emergence efficacy against MATIN [2, 9]: 100%
Pre-emergence efficacy against PHBPU [5]: 80%
Post-emergence efficacy against ALOMY in % [6]: 90%
Post-emergence efficacy against DIGSA in % ([7]; application rate 80 g/ha): 80%
Post-emergence efficacy against DIGSA in % ([7]; application rate 320 g/ha): 100%

SMILES: CC(C)CS(=O)(=O)Oc1ccccc1Oc1ncc(Cl)cn1 [Example I-7, [2-(5-Chloropyrimidin-2-yl)oxyphenyl] 2-methylpropane-1-sulfonate]
Pre-emergence efficacy against ECHCG ([1]; 320 g/ha): 100%
Pre-emergence efficacy against ECHCG ([1]; 1280 g/ha): 100%
Pre-emergence efficacy against MATIN [2, 8]: 100%
Pre-emergence efficacy against MATIN [2, 9]: 100%
Post-emergence efficacy against ALOMY in % [6]: 90%
Post-emergence efficacy against DIGSA in % ([7]; application rate 80 g/ha): 90%
Post-emergence efficacy against DIGSA in % ([7]; application rate 320 g/ha): 100%

Pre-emergence efficacy against ZEAMX in % (Zea mays (ZEAMX); application rate 80 g/ha): 0%
Pre-emergence efficacy against ZEAMX in % (Zea mays (ZEAMX); application rate 320 g/ha): 20%
SMILES: O=S(=O)(CCl)Oc1ccccc1Oc1ncc(Cl)cn1 [Example I-9]
Pre-emergence efficacy against ECHCG ([1]; 1280 g/ha): 100%
Pre-emergence efficacy against MATIN [2, 8]: 90%
Pre-emergence efficacy against MATIN [2, 9]: 100%
Pre-emergence efficacy against MATIN [4]: 80%
Post-emergence efficacy against DIGSA in % ([7]; application rate 320 g/ha): 80%

SMILES: O=S(=O)(CCCCl)Oc1cccc(F)c1Oc1ncc(Cl)cn1 [Example I-13]
Pre-emergence efficacy against ECHCG ([1]; 1280 g/ha): 100%
Pre-emergence efficacy against ZEAMX in % (Zea mays (ZEAMX); application rate 80 g/ha): 10%
Pre-emergence efficacy against ZEAMX in % (Zea mays (ZEAMX); application rate 320 g/ha): 20%

SMILES: CCS(=O)(=O)Oc1ccccc1Oc1ncc(Cl)cn1 [Example I-16]
Pre-emergence efficacy against ECHCG ([1]; 320 g/ha): 90%
Pre-emergence efficacy against ECHCG ([1]; 1280 g/ha): 100%
Pre-emergence efficacy against MATIN [2, 8]: 100%
Pre-emergence efficacy against MATIN [2, 9]: 100%
Post-emergence efficacy against ALOMY in % [3]: 90%

SMILES: Cc1cccc(Oc2ncc(Cl)cn2)c1OS(=O)(=O)CCCC(F)(F)F [Example I-28, 2-[(5-Chloropyrimidin-2-yl)oxy]-6-methylphenyl 4,4,4-trifluorobutane-1-sulfonate]
Pre-emergence efficacy against ECHCG ([1]; 80 g/ha): 90%
Pre-emergence efficacy against ECHCG ([1]; 320 g/ha): 100%
Pre-emergence efficacy against ECHCG ([1]; 1280 g/ha): 100%
Pre-emergence efficacy against MATIN [2, 9]: 100%

SMILES: O=S(=O)(CCCC(F)(F)F)Oc1c(Br)cccc1Oc1ncc(Cl)cn1 [Example I-30]
Pre-emergence efficacy against ECHCG ([1]; 320 g/ha): 100%
Pre-emergence efficacy against ECHCG ([1]; 1280 g/ha): 100%
Pre-emergence efficacy against MATIN [2, 9]: 100%

SMILES: O=S(=O)(CCC(F)(F)F)Oc1c(Br)cccc1Oc1ncc(Cl)cn1 [Example I-31]
Pre-emergence efficacy against ECHCG ([1]; 1280 g/ha): 100%
Pre-emergence efficacy against MATIN [2, 9]: 90%

SMILES: O=S(=O)(CCCC(F)(F)F)Oc1c(Cl)cccc1Oc1ncc(Br)cn1 [Example I-34]
Post-emergence efficacy against DIGSA in % ([7]; application rate 320 g/ha): 90%

Pre-emergence efficacy against ZEAMX in % (Zea mays (ZEAMX); application rate 80 g/ha): 0%
SMILES: C=CCS(=O)(=O)Oc1ccccc1Oc1ncc(Cl)cn1 [Example I-36]
Pre-emergence efficacy against ECHCG ([1]; 1280 g/ha): 100%

SMILES: O=S(=O)(CCCC(F)(F)F)Oc1c(Cl)cccc1Oc1ncc(Cl)cn1 [Example I-39]
Pre-emergence efficacy against ECHCG ([1]; 320 g/ha): 90%
Pre-emergence efficacy against ECHCG ([1]; 1280 g/ha): 100%
Pre-emergence efficacy against MATIN [2, 8]: 100%
Pre-emergence efficacy against MATIN [2, 9]: 100%
Pre-emergence efficacy against MATIN [4]: 80%
Pre-emergence efficacy against PHBPU [5]: 90%
Pre-emergence efficacy against ZEAMX in % (Zea mays (ZEAMX); application rate 80 g/ha): 0%
Post-emergence efficacy against DIGSA in % ([7]; application rate 80 g/ha): 90%
Post-emergence efficacy against DIGSA in % ([7]; application rate 320 g/ha): 100%

From patent US20240174618A1, “SUBSTITUTED (2-HETEROARYLOXYPHENYL)SULFONATES, SALTS THEREOF AND THEIR USE AS HERBICIDAL AGENTS” (Bayer Aktiengesellschaft, priority 2021, published 2024)
